For orientation: IC50 means the concentration that gives 50% inhibition. One may read the melting point as the temperature of the solid-liquid transition.

Structures are written as SMILES.

One data set has as its target T1, Recombinant ALK kinase (Homo sapiens, UniProt Q9UM73).
T1 construct: made in house; host or cells: Sf9 insect cells (baculovirus)
Put plainly: ALK kinase inhibitory activity, ELISA-based in vitro kinase assay. It is filed as biochemical. To be noted: purified rALK, 0.3 mM ATP, read-out: ALK IC50. How it is done: 36. Alk Kinase Inhibitory Activity
(§1) Method: ELISA-Based In Vitro Kinase Assay
(§2) Recombinant ALK kinase was expressed in Sf9 insect cells using the pBlueBacHis2C baculovirus vector system and purified using an anion exchange Fast Flow Q-sepharose column (Amersham-Pharmacia Biotech) followed by HiTrap™-nickel affinity column (Amersham-Pharmacia Biotech). Purified ALK protein was used to screen inhibitors in the ELISA-based kinase assay. A Nunc Immuno 96 well plate was incubated overnight at 37° C. with coating solution (125 μL/well) containing ALK peptide substrate ([…]) (SEQ ID NO: 1) at various concentrations in PBS. Wells were then washed with 200 μL of wash buffer (PBS-Tween 0.05%) and left to dry for at least 2 h at 37° C. The kinase reaction was performed in the presence of 50 mM Tris pH 7.5, 5 mM MnCl2, 5 mM MgCl2, 0.3 mM ATP and purified rALK in a total volume of 100 μL/well at 30° C. for 15 min. For inhibitor testing the reaction mix was preincubated with the inhibitor or solvent control for 10 min at room temperature before transferring to the ELISA plate. After the reaction wells were washed 5 times with 200 μL of wash buffer. Phosphorylated peptide was detected using 100 μL/well of a mouse monoclonal anti-phosphotyrosine antibody (clone 4G10 Upstate Biotech Ltd) diluted 1:2000 in PBS+4% BSA. After 30 min incubation at room temperature the antibody was removed and wells were washed as described above. 100 μL of a secondary antibody (anti-mouse IgG, Horseradish Peroxidase linked whole antibody, Amersham Pharmacia Biotech) diluted 1:1000 in PBS+4% BSA was added to each well and the plate was incubated again for 30 min at room temperature before washing as above. The plate was developed using 100 μL/well TMB Substrate Solution (Endogen) and the reaction was stopped by adding an equiv.ual volume of H2SO4 0.36 M. Finally, the absorbance was read at 450 nm using an Ultrospec® 300 spectrophotometer (Amersham-Pharmacia Biotech). The concentration of the test solution showing 50% inhibition as compared with the control was expressed as IC50 (μM).
On the technique in general: An ELISA detects its analyte on a solid surface through an enzyme-linked reagent.

Data set [1] deals with T2, Recombinant Abl T315I protein (Homo sapiens, UniProt P00519, T315I).
T2 construct: made in house; host or cells: Sf9 cells (baculovirus)
Put plainly: Abl T315I mutant kinase inhibitory activity, ELISA-based in vitro kinase assay. It is filed as biochemical. To be noted: purified Abl T315I, 0.3 mM ATP. The protocol:
as §2
37. Abl T315I Mutant Kinase Inhibitory Activity
as §1
Recombinant Abl T315I protein was expressed in Sf9 cells using the pBlueBacHis2C baculovirus expression vector. Abl T315I was purified using an anion exchange Fast Flow Q-sepharose column (Amersham-Pharmacia Biotech) followed by HiTrap™-nickel affinity column (Amersham-Pharmacia Biotech). Purified Abl T315I was used in the ELISA-based kinase assay to screen inhibitors as described above. The kinase reaction was performed in the presence of 50 mM Tris pH 7.5, 1 mM MnCl2, 5 mM MgCl2, 0.3 mM ATP, peptide substrate ([…]) (SEQ ID NO: 1) and purified Abl T315I. The concentration of the test solution showing 50% inhibition as compared with the control was expressed as IC50 (μM).

In data set [2] the test system is parent untransformed BaF3 cells. In words: Tritiated thymidine uptake cell proliferation assay, parental BaF3 (control). It is filed as cell-based. The conditions noted are these: Mus musculus, 3[H]-thymidine uptake, 72 h, medium with IL-3, read-out: BaF parental IC50. The protocol: (§3) Method: Tritiated Thymidine Uptake Cell Proliferation Assay
(§4) The following procedure was used with parent untransformed BaF3 cells, BaF3 cells transformed with the oncogenic fusion protein NPM/ALK, NPM/ALK positive SUDHL-1 cells, ALK-negative U937 cells, NPM/ALK positive KARPAS-299 cells. The parent untransformed BaF3 cells and Alk-negative U937 cells are used as controls. Cells were seeded in U-bottomed 96-well plates at 10 000 cells/well in a volume of 100 μL in supplemented medium. In the case of the parent untransformed BaF3 cells, the medium was supplemented with IL-3. Serial dilutions of inhibitors were added to the appropriate wells and volumes adjusted to 200 μL. Controls were treated with the equivalent volume of vehicle, DMSO, alone. Plates were incubated at 37° C. for 72 h. ^3[H]-thymidine (1 μCi/well) was added for the last 16 h of incubation. Cells were harvested on to paper filters and ^3[H]-thymidine incorporation was measured using a β scintillation counter (1430 MicroBeta, Wallac, Turku, Finland). The 50% inhibitory concentration (IC50) was defined as the concentration of inhibitor, expressed in micromolar, that gave a 50% decrease in ^3[H]-thymidine uptake compared with controls.
as §4, with “protein bcr-abl, Abl-negative” for “protein NPM/ALK, NPM/ALK positive SUDHL-1 cells, ALK-negative”, “cells, or Bcr-abl” for “cells, NPM/ALK”, “positive LAMA-84” for “positive KARPAS-299”, “and Abl-negative” for “and Alk-negative”, “in ^3H-thymidine” for “in ^3[H]-thymidine”
as §4, with “RET-PTC2, or RET-negative 11937” for “NPM/ALK, NPM/ALK positive SUDHL-1 cells, ALK-negative U937 cells, NPM/ALK positive KARPAS-299”, “RET-negative” for “Alk-negative”

Data set [3] has as its target T3, BaF3 cells transformed with the oncogenic fusion protein NPM/ALK (Homo sapiens, UniProt Q9UM73).
T3 construct: fused on or other part: P06748 (Nucleophosmin)
Put plainly: Tritiated thymidine uptake cell proliferation assay, BaF3 NPM/ALK. To be noted: 3[H]-thymidine uptake, 72 h; read-out: BaF NPM/ALK IC50. The class given is cell-based. How it is done: Inhibition of the proliferation of NPM/ALK positive cells
as §3, §4

T3 sequence (Q9UM73 whole entry, change not shown, the tested form may be a part): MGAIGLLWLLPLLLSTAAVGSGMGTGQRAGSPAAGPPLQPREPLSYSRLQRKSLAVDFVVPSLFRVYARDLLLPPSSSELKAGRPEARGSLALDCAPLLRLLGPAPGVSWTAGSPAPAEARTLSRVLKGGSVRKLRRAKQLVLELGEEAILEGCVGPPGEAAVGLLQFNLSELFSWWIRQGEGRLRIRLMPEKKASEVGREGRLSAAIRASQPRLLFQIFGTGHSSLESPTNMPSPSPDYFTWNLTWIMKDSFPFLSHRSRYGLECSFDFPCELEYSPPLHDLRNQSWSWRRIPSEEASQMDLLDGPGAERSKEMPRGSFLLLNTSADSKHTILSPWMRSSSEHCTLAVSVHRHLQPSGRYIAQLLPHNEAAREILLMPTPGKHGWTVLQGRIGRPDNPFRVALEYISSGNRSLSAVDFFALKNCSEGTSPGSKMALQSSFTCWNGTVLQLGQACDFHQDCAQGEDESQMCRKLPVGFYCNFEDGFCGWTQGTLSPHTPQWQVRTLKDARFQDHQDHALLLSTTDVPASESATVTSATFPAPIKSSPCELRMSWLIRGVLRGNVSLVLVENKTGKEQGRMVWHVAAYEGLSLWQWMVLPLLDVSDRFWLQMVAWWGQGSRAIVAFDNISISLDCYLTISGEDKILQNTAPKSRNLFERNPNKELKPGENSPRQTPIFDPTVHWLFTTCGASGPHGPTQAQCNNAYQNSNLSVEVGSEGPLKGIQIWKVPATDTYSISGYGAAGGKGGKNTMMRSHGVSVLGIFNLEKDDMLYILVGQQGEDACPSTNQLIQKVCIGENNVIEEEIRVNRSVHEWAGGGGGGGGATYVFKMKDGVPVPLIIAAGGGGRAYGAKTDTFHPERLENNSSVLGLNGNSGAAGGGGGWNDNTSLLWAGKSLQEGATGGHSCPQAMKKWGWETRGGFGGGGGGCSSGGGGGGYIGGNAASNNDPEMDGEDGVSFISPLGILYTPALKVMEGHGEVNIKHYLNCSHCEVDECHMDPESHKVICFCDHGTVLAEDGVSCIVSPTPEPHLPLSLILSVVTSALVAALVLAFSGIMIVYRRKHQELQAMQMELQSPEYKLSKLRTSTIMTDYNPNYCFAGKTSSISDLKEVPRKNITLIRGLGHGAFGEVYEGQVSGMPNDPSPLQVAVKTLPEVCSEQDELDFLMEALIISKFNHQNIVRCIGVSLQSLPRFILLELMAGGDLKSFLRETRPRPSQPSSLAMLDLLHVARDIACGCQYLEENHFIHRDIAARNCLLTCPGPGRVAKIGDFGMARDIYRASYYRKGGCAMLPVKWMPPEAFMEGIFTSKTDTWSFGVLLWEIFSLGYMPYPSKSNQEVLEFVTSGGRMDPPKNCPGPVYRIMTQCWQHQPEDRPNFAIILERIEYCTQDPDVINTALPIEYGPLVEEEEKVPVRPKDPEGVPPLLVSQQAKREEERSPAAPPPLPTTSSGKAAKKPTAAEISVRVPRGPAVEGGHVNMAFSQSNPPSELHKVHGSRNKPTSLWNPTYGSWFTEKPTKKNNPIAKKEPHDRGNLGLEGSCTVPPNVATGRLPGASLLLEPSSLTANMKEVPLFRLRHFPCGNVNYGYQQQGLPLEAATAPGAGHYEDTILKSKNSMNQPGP
T1 sequence (Q9UM73 19-1620): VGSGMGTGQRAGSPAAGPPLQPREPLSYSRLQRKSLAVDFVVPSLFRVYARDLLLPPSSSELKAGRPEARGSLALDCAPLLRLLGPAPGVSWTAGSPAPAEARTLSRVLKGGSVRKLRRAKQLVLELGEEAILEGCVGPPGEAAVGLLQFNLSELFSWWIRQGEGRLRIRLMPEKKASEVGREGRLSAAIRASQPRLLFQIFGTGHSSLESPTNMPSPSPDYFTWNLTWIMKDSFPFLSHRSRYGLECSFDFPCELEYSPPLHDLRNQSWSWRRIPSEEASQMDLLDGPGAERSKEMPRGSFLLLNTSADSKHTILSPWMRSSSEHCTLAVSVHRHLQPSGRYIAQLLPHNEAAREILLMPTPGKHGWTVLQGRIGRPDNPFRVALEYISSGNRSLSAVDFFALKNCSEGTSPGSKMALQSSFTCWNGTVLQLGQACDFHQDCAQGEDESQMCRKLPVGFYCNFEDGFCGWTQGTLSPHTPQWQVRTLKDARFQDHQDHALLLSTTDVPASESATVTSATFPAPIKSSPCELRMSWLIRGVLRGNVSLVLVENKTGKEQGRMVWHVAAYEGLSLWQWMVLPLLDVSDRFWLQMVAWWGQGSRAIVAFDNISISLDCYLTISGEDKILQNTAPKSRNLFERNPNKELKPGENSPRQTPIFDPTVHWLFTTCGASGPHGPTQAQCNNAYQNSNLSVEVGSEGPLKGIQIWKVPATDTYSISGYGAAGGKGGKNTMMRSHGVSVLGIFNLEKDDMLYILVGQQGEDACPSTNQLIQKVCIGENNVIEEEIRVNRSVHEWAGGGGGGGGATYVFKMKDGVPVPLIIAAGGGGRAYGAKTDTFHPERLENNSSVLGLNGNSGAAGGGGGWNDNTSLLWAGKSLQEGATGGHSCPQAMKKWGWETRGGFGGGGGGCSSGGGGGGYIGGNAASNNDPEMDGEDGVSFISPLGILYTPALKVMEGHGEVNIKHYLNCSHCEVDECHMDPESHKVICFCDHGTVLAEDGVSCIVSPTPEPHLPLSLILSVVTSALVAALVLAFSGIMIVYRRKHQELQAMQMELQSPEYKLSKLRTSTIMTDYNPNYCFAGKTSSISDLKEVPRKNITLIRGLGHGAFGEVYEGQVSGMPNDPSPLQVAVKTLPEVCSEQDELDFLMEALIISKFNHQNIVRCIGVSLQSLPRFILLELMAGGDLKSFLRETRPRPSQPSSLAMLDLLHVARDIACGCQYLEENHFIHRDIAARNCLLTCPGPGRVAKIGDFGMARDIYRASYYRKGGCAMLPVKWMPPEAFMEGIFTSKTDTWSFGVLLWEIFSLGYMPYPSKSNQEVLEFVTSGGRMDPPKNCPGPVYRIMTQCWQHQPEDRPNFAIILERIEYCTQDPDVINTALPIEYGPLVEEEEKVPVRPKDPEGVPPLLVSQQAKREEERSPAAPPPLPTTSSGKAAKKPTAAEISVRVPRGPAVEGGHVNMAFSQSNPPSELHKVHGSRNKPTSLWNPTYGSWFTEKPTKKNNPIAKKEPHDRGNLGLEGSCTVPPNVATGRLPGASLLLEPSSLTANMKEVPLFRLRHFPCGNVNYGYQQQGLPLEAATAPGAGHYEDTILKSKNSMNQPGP

`COc1ccc(-c2ccnc3[nH]c4ccccc4c23)cc1` [R309, 4-(4-methoxyphenyl)-9H-pyrido[2,3-b]indole] had a melting point of 208 to 210 °C. On Recombinant ALK kinase, the IC50 was found to be 4 ± 0.2 µM. For the same compound, the IC50 in data set [1] turned out to be 1.6 µM. Further, the IC50 in data set [2] came to 15 µM. For the same compound, the GI50 in data set [3] turned out to be 25 µM. `c1coc(-c2ccc3c(n2)[nH]c2ccccc23)c1` [R326, 2-(furan-2-yl)-9H-pyrido[2,3-b]indole]: the melting point was in the range of 208 to 210 °C. Besides, the IC50 in data set [2] was 8.8 µM. For the same compound, the GI50 in data set [3] amounted to 19 µM. As to `c1coc(-c2ccnc3[nH]c4ccccc4c23)c1` [R327, 4-(furan-2-yl)-9H-pyrido[2,3-b]indole], the melting point was more than 220 °C. Also, in data set [2], the IC50 is more than 100 µM. For the same compound, the GI50 in data set [3] was determined as 26 µM. The compound `O=[N+]([O-])c1cccc(-c2ccnc3[nH]c4ccccc4c23)c1` [R331, 4-(3-nitrophenyl)-9H-pyrido[2,3-b]indole] showed a melting point of more than 220 °C. Besides, the IC50 on Recombinant ALK kinase was more than 100 µM. Also, the IC50 in data set [2] was more than 100 µM. Besides, the GI50 in data set [3] turned out to be 40 µM.

As for `O=C(O)CCC(=O)c1ccc2[nH]c3ncc(Cl)cc3c2c1` [compound 11, 4-(3-Chloro-9H-pyrido[2,3-b]indol-6-yl)-4-oxo-butyric acid], the melting point stood at 243 °C. Still for that read-out and setting: to `O=C(O)CCC(=O)c1ccc2[nH]c3nc(Cl)ccc3c2c1` [compound 12, 4-(2-Chloro-9H-pyrido[2,3-b]indol-6-yl)-4-oxo-butyric acid] belongs 280.8 °C. Same read-out and setting: as for `O=S(=O)(c1ccccc1)n1c2ccc(Br)cc2c2ccc(Cl)nc21` [compound 19, 9-benzenesulfonyl-6-bromo-2-chloro-9H-pyrido[2,3-b]indole], the figure is 204 to 206 °C; as for `O=S(=O)(c1ccccc1)n1c2ccc(Br)cc2c2cc(Cl)cnc21` [compound 20, 9-benzenesulfonyl-6-bromo-3-chloro-9H-pyrido[2,3-b]indole], 242 °C. For `O=S(=O)(c1ccccc1)n1c2ccc(Br)cc2c2c(Cl)ccnc21` [compound 21, 9-benzenesulfonyl-6-bromo-4-chloro-9H-pyrido[2,3-b]indole], the melting point is 212 to 214 °C. The same measure, in the same setting: as for `COc1ccc(-c2ccc3c(c2)c2cc(Cl)cnc2n3S(=O)(=O)c2ccccc2)cc1` [compound 26, 9-benzenesulfonyl-3-chloro-6-(4-methoxyphenyl)-9H-pyrido[2,3-b]indole], the figure is more than 220 °C. `O=S(=O)(c1ccccc1)n1c2ccc(/C=C/c3ccccc3)cc2c2cc(Cl)cnc21` [compound 27, 9-benzenesulfonyl-3-chloro-6-(2′-phenylethenyl)-9H-pyrido[2,3-b]indole]: the melting point fell in the range of 190 to 192 °C. Still for that read-out and setting: to `COc1ccc(-c2ccc3c(c2)c2ccc(Cl)nc2n3S(=O)(=O)c2ccccc2)cc1` [compound 32, 9-benzenesulfonyl-2-chloro-6-(4-methoxyphenyl)-9H-pyrido[2,3-b]indole] belongs 176 to 178 °C; to `COc1ccc(-c2ccc3c(c2)c2c(Cl)ccnc2n3S(=O)(=O)c2ccccc2)cc1` [compound 34, 9-benzenesulfonyl-4-chloro-6-(4-methoxyphenyl)-9H-pyrido[2,3-b]indole], 209 to 211 °C; to `O=S(=O)(c1ccccc1)n1c2ccc(/C=C/c3ccccc3)cc2c2c(Cl)ccnc21` [compound 35, 9-benzenesulfonyl-4-chloro-6-(2′-phenylethenyl)-9H-pyrido[2,3-b]indole], 216 to 218 °C. Same read-out and setting: as for `COc1ccc(-c2ccc3c(c2)c2ccc(-c4ccc(OC)cc4)nc2n3S(=O)(=O)c2ccccc2)cc1` [compound 36, 9-benzenesulfonyl-2,6-di(4-methoxyphenyl)-9H-pyrido[2,3-b]indole], the figure is 206 to 208 °C; as for `COc1ccc(-c2ccc3c(c2)c2c(-c4ccc(OC)cc4)ccnc2n3S(=O)(=O)c2ccccc2)cc1` [compound 37, 9-benzenesulfonyl-4,6-di(4-methoxyphenyl)-9H-pyrido[2,3-b]indole], 162 to 164 °C; as for `COc1ccc(-c2ccc3c(c2)c2ccc(/C=C/c4ccccc4)nc2n3S(=O)(=O)c2ccccc2)cc1` [compound 43, 9-benzenesulfonyl-6-(4-methoxyphenyl)-2-(2′-phenylethenyl)-9H-pyrido[2,3-b]indole], 193 to 195 °C. In the case of `COc1ccc(-c2ccc3c(c2)c2c(/C=C/c4ccccc4)ccnc2n3S(=O)(=O)c2ccccc2)cc1` [compound 45, 9-benzenesulfonyl-6-(4-methoxyphenyl)-4-(2′-phenylethenyl)-9H-pyrido[2,3-b]indole], the melting point was in the range of 190 to 192 °C. Still for that read-out and setting: to `O=S(=O)(c1ccccc1)n1c2ccc(CCc3ccccc3)cc2c2cc(Cl)cnc21` [compound 61, 9-(benzenesulfonyl)-3-chloro-6-(2′-phenylethyl)-9H-pyrido[2,3-b]indole] belongs 158 to 162 °C.
